Assay results as given in patent US20260297060A1, “COMPOUNDS FOR THE DEGRADATION OF MUTANT BRAF” (C4 THERAPEUTICS, INC., priority 2023, published 2026).
Where two headings read alike, the source gives them in different places.

Legend:
BRAF V600E = biological target: T1, BRAF V600E (Homo sapiens, UniProt P15056+Q96SW2, V600E); test: BRAF V600E HiBiT Degradation Assay; type: cell-based; conditions: A375.10 cells, BRAF V600E
T1 construct: knock-in of the HiBiT tag to the endogenous BRAF V600E locus; host or cells: A375.10 (A375 clonal line, CRISPR HiBiT knock-in at the endogenous BRAF V600E locus)
How it was run: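 Endogenous HiBiT knock-in on BRAF V600E in A375 cells (clone A375.10); 11-point half-log series, top 10 μM, 2, 6 or 24 h at 37° C. Lytic HiBiT luminescence, background-subtracted, normalized to DMSO; 4-parameter fit gives DC50, Emax (residual protein) and IP (inflection point).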

A375-NRAS^Q61K cells = test: CTGlo Cell Viability Assay, A375-NRAS^Q61K (A375.11) cells, 96 hours; type: cell-based, human; conditions: A375.11 (A375-NRAS^Q61K) cells; for Emax / CTGlo A375.11 96 hours Emax: lowest % viability achieved
How it was run: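 Viability as CellTiter-Glo ATP luminescence after 96 h compound exposure at 37 °C; A375.11 (BRAF V600E/NRAS Q61K) cells at 250/well, top final concentration 10 μM in half-log steps. Signal was background-corrected and set relative to DMSO controls. A 4-parameter logistic fit gave GI50 (50% crossing) and Emax.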

[1] = 2 hours, inflection point, read-out: HiBiT-Degradation A375.10 BRAF 2 hours IP
[2] = 2 hours, read-out: HiBiT-Degradation A375.10 BRAF 2 hours DC50
[3] = 2 hours, residual protein remaining, read-out: HiBiT-Degradation A375.10 BRAF 2 hours Emax
[4] = 2 hours, residual protein remaining
[5] = read-out: HiBiT-Degradation A375.10 BRAF 2 hours DC50, 2 hours
[6] = read-out: HiBiT-Degradation A375.10 BRAF 2 hours IP, 2 hours, inflection point

T1 sequence (P15056 whole entry V600E): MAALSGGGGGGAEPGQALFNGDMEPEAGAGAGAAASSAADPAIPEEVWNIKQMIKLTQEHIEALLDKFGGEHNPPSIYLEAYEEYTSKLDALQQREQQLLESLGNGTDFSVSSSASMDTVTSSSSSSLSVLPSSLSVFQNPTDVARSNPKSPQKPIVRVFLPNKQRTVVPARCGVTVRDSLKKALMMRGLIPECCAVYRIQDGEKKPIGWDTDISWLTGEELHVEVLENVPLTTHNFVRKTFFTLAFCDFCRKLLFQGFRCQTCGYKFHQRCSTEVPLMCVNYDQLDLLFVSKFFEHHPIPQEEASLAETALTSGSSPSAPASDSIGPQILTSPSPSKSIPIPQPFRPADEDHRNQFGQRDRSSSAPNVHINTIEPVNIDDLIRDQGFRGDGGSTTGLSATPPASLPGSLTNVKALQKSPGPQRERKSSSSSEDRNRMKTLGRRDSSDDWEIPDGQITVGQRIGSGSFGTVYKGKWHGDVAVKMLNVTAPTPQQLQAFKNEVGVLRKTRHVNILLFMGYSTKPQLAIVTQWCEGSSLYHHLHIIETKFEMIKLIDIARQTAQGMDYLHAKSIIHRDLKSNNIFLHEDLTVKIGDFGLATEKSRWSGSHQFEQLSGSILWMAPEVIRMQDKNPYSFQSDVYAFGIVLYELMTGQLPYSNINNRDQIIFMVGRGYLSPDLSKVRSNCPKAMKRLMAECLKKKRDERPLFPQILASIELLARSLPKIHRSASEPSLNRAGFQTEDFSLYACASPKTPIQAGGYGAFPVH
T1 sequence (Q96SW2 whole entry): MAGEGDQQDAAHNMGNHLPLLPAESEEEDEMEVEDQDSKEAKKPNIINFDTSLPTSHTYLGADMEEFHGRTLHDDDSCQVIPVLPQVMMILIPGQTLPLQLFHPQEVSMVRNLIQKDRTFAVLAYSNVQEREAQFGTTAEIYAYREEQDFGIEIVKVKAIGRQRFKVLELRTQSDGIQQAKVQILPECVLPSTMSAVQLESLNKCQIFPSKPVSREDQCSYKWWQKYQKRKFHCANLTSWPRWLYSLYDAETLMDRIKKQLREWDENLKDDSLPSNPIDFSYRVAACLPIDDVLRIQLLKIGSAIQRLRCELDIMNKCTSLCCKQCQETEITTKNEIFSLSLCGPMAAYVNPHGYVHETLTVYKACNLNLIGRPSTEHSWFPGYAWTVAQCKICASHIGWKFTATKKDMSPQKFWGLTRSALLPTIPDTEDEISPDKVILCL
T1 sequence (Q16531 whole entry partner): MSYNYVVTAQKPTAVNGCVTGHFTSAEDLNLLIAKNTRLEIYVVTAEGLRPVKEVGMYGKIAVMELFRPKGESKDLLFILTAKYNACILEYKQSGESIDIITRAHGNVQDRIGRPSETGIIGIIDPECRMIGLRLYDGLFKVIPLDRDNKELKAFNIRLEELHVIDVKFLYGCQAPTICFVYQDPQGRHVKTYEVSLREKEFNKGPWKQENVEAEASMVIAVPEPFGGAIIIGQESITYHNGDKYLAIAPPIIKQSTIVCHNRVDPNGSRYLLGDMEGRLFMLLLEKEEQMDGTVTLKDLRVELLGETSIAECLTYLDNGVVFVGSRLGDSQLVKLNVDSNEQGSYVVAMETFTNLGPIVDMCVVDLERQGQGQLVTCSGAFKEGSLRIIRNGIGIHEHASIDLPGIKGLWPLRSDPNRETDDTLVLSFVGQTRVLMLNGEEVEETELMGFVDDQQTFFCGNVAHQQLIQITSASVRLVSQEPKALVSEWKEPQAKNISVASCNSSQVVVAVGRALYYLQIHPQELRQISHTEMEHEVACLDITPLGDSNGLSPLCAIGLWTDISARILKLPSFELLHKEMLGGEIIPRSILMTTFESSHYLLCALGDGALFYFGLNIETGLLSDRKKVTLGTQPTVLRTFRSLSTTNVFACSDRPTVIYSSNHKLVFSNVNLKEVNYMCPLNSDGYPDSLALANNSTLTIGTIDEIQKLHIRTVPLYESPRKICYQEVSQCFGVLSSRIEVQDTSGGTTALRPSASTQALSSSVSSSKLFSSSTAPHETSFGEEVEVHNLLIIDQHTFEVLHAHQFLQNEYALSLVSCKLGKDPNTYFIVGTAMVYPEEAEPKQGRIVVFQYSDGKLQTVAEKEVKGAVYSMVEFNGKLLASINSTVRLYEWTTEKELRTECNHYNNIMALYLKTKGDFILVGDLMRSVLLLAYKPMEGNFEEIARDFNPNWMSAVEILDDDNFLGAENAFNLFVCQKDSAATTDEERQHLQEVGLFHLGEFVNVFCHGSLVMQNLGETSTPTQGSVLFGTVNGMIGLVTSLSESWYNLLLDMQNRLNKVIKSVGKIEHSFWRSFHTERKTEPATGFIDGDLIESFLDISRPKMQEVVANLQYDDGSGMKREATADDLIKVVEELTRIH

DC50 (BRAF V600E; [1]) [µM] | DC50 (BRAF V600E; [2]) [µM] | Emax (BRAF V600E; [3]) [%] | GI50 (A375-NRAS^Q61K cells) [µM] | HiBiT-Degradation A375.10 BRAF 2 hours Emax (BRAF V600E; [4]) | GI50 (A375-NRAS^Q61K cells; Homo sapiens, 96 h) [µM] | SMILES | Emax (A375-NRAS^Q61K cells; Homo sapiens, 96 h) [%] | CTGlo A375.11 96 hours Emax (A375-NRAS^Q61K cells) | further results
< 1 | < 1 | < 50 | > 10 |  |  | CCN(C)S(=O)(=O)Nc1ccc(F)c(Oc2ccc3ncn([C@@H]4COC5(C4)CN(C4CCC(c6cc7c(cc6F)c(N6CCC(=O)NC6=O)nn7C)CC4)C5)c(=O)c3c2)c1C#N (single isomer, unassigned) [Compound 237] | 50 to 90 |  | 
< 1 | < 1 | < 50 |  |  | 1 to 10 | CCN(C)S(=O)(=O)Nc1ccc(F)c(Oc2ccc3ncn(C4[C@H]5CN(C6CCC(c7cc8c(cc7F)c(N7CCC(=O)NC7=O)nn8C)CC6)C[C@@H]45)c(=O)c3c2)c1C#N (single isomer, unassigned) [Compound 240] | 50 to 90 |  | 
< 1 | 1 to 10 | 50 to 90 |  |  | 1 to 10 | CCN(C)S(=O)(=O)Nc1ccc(F)c(Oc2ccc3ncnc(OC4CC5(CCN(C6CCC(c7cc8c(cc7F)c(N7CCC(=O)NC7=O)nn8C)CC6)CC5)C4)c3c2)c1C#N (single isomer, unassigned) [Compound 243, 6-[2-cyano-3-[[ethyl(methyl)sulfamoyl]amino]-6-fluoro-phenoxy]-4-[[7-[4-[3-(2,4-dioxohexahydropyrimidin-1-yl)-5-fluoro-1-methyl-indazol-6-yl]cyclohexyl]-7-azaspiro[3.5]nonan-2-yl]oxy]quinazoline] | 50 to 90 |  | 
< 1 | < 1 | < 50 |  |  | 1 to 10 | CC(C)S(=O)(=O)Nc1ccc(F)c(Oc2ccc3ncc(C4CC5(CCN(C6CCC(c7cc8c(cc7F)c(N7CCC(=O)NC7=O)nn8C)CC6)CC5)C4)nc3c2)c1C#N (single isomer, unassigned) [Compound 248, N-[2-cyano-3-[3-[7-[4-[3-(2,4-dioxohexahydropyrimidin-1-yl)-5-fluoro-1-methyl-indazol-6-yl]cyclohexyl]-7-azaspiro[3.5]nonan-2-yl]quinoxalin-6-yl]oxy-4-fluoro-phenyl]propane-2-sulfonamide] | 50 to 90 |  | 
< 1 | < 1 | < 50 |  |  | < 1 | Cn1nc(N2CCC(=O)NC2=O)c2cc(F)c([C@H]3CC[C@@H](N4CCC5(CC4)CC(c4cnc6ccc(Oc7c(F)ccc(NS(=O)(=O)N8CC[C@@H](F)C8)c7C#N)cc6n4)C5)CC3)cc21 (single isomer, unassigned) [Compound 268] | < 50 |  | 
 |  | < 50 |  |  | < 1 | Cn1nc(N2CCC(=O)NC2=O)c2cc(F)c(C3CCC(N4CCC5(CC4)CC(c4cnc6ccc(Oc7c(F)ccc(NS(=O)(=O)C8CCCC8)c7C#N)cc6n4)C5)CC3)cc21 (single isomer, unassigned) [Compound 270, N-[2-cyano-3-[3-[7-[4-[3-(2,4-dioxohexahydropyrimidin-1-yl)-5-fluoro-1-methyl-indazol-6-yl]cyclohexyl]-7-azaspiro[3.5]nonan-2-yl]quinoxalin-6-yl]oxy-4-fluoro-phenyl]cyclopentanesulfonamide] | 50 to 90 |  | DC50 (BRAF V600E; [5]): < 1 µM; DC50 (BRAF V600E; [6]): < 1 µM
 |  | 50 to 90 | > 10 |  |  | CO[C@H]1CCN(S(=O)(=O)Nc2ccc(F)c(Oc3ccc4ncc(C5CC6(CCN(C7CCC(c8cc9c(cc8F)c(N8CCC(=O)NC8=O)nn9C)CC7)CC6)C5)nc4c3)c2C#N)C1 (single isomer, unassigned) [Compound 275] | 50 to 90 |  | HiBiT-Degradation A375.10 BRAF 2 hours IP (BRAF V600E; 2 hours, inflection point): *** (<=1 μM); DC50 (BRAF V600E; [5]): < 1 µM
< 1 | < 1 | < 50 |  |  | < 1 | CO[C@@H]1CCN(S(=O)(=O)Nc2ccc(F)c(Oc3ccc4ncc(C5CC6(CCN(C7CCC(c8cc9c(cc8F)c(N8CCC(=O)NC8=O)nn9C)CC7)CC6)C5)nc4c3)c2C#N)C1 (single isomer, unassigned) [Compound 284] | < 50 |  | 
< 1 | < 1 | < 50 |  |  | < 1 | CCN(C)S(=O)(=O)Nc1ccc(F)c(Oc2ccc3ncn([C@@H]4CO[C@@]5(CCN(C6CCC(c7cc8c(cc7F)c(N7CCC(=O)NC7=O)nn8C)CC6)C5)C4)c(=O)c3c2)c1C#N (single isomer, unassigned) [Compound 286] | < 50 |  | HiBiT-Degradation A375.10 BRAF 24 hours Emax (BRAF V600E; HiBiT, 24 hours): *** (<=50%)

Second part, the compound before the results:

SMILES | DC50 (BRAF V600E; [1]) [µM] | DC50 (BRAF V600E; [2]) [µM] | Emax (BRAF V600E; [3]) [%] | GI50 (A375-NRAS^Q61K cells) [µM] | HiBiT-Degradation A375.10 BRAF 2 hours Emax (BRAF V600E; [4]) | GI50 (A375-NRAS^Q61K cells; Homo sapiens, 96 h) [µM] | Emax (A375-NRAS^Q61K cells; Homo sapiens, 96 h) [%] | CTGlo A375.11 96 hours Emax (A375-NRAS^Q61K cells) | further results
CCN(C)S(=O)(=O)Nc1ccc(F)c(Oc2ccc3ncn([C@@H]4COC5(C4)CN(C4CCC(c6cc7c(cc6F)c(N6CCC(=O)NC6=O)nn7C)CC4)C5)c(=O)c3c2)c1C#N (single isomer, unassigned) [Compound 238] | < 1 | < 1 |  | < 1 | *** (<=50%) |  |  | ** (<90% and >50%) | DC50 (BRAF V600E; HiBiT, 24 hours, read-out: HiBiT-Degradation A375.10 BRAF 24 hours DC50): < 1 µM; Emax (BRAF V600E; HiBiT, 24 hours, read-out: HiBiT-Degradation A375.10 BRAF 24 hours Emax): < 50%; DC50 (BRAF V600E; HiBiT, 24 hours, read-out: HiBiT-Degradation A375.10 BRAF 24 hours IP): < 1 µM
CC(C)S(=O)(=O)Nc1ccc(F)c(Oc2ccc3ncc(C4CC5(CCN(C6CCC(c7cc8c(cc7F)c(N7CCC(=O)NC7=O)nn8C)CC6)CC5)C4)nc3c2)c1C#N (single isomer, unassigned) [Compound 249, N-[2-cyano-3-[3-[7-[4-[3-(2,4-dioxohexahydropyrimidin-1-yl)-5-fluoro-1-methyl-indazol-6-yl]cyclohexyl]-7-azaspiro[3.5]nonan-2-yl]quinoxalin-6-yl]oxy-4-fluoro-phenyl]propane-2-sulfonamide] | < 1 | < 1 |  | < 1 | *** (<=50%) |  |  | ** (<90% and >50%) | 
Cn1nc(N2CCC(=O)NC2=O)c2cc(F)c(C3CCC(N4CCC5(CC4)CC(c4cnc6ccc(Oc7c(F)ccc(NS(=O)(=O)C8CCCC8)c7C#N)cc6n4)C5)CC3)cc21 (single isomer, unassigned) [Compound 271, N-[2-cyano-3-[3-[7-[4-[3-(2,4-dioxohexahydropyrimidin-1-yl)-5-fluoro-1-methyl-indazol-6-yl]cyclohexyl]-7-azaspiro[3.5]nonan-2-yl]quinoxalin-6-yl]oxy-4-fluoro-phenyl]cyclopentanesulfonamide] |  |  |  | < 1 | *** (<=50%) |  |  | *** (<=50%) | DC50 (BRAF V600E; [5]): < 1 µM; DC50 (BRAF V600E; [6]): < 1 µM
CO[C@H]1CCN(S(=O)(=O)Nc2ccc(F)c(Oc3ccc4ncc(C5CC6(CCN(C7CCC(c8cc9c(cc8F)c(N8CCC(=O)NC8=O)nn9C)CC7)CC6)C5)nc4c3)c2C#N)C1 (single isomer, unassigned) [Compound 276] |  |  |  | 1 to 10 | ** (<90% and >50%) |  |  | ** (<90% and >50%) | HiBiT-Degradation A375.10 BRAF 2 hours IP (BRAF V600E; 2 hours, inflection point): *** (<=1 μM); DC50 (BRAF V600E; [5]): < 1 µM
CCN(C)S(=O)(=O)Nc1ccc(F)c(Oc2ccc3ncc(OC4CC5(C4)CN(C4CCC(c6cc7c(cc6F)c(N6CCC(=O)NC6=O)nn7C)CC4)C5)nc3c2)c1C#N (single isomer, unassigned) [Compound 281, 7-[2-cyano-3-[[ethyl(methyl)sulfamoyl]amino]-6-fluoro-phenoxy]-2-[[2-[4-[3-(2,4-dioxohexahydropyrimidin-1-yl)-5-fluoro-1-methyl-indazol-6-yl]cyclohexyl]-2-azaspiro[3.3]heptan-6-yl]oxy]quinoxaline] | < 1 | > 10 | 50 to 90 |  |  | < 1 | < 50 |  | 
CCN(C)S(=O)(=O)Nc1ccc(F)c(Oc2ccc3ncc(OC4CC5(C4)CN(C4CCC(c6cc7c(cc6F)c(N6CCC(=O)NC6=O)nn7C)CC4)C5)nc3c2)c1C#N (single isomer, unassigned) [Compound 282, 7-[2-cyano-3-[[ethyl(methyl)sulfamoyl]amino]-6-fluoro-phenoxy]-2-[[2-[4-[3-(2,4-dioxohexahydropyrimidin-1-yl)-5-fluoro-1-methyl-indazol-6-yl]cyclohexyl]-2-azaspiro[3.3]heptan-6-yl]oxy]quinoxaline] | < 1 | < 1 |  | < 1 | ** (<90% and >50%) |  |  | *** (<=50%) | 
CO[C@@H]1CCN(S(=O)(=O)Nc2ccc(F)c(Oc3ccc4ncc(C5CC6(CCN(C7CCC(c8cc9c(cc8F)c(N8CCC(=O)NC8=O)nn9C)CC7)CC6)C5)nc4c3)c2C#N)C1 (single isomer, unassigned) [Compound 285] |  | < 1 |  | < 1 |  |  |  |  | 
